Results taken from PubChem BioAssay (NCI).
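Cells were grown in 96-well plates and exposed to each compound for 48 hours at five concentrations; endpoints were interpolated linearly between bracketing concentrations, or set to the highest concentration if not reached. GI50 is the concentration that inhibits growth by half. TGI: total growth inhibition.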

Assays:
Test in all cases: NCI-60 cell line screen, 48 h
[1] = system: NCI/ADR-RES ovarian
[2] = system: U251 CNS
[3] = system: 786-0 renal
[4] = system: NCI-H226 lung
[5] = system: HCT-15 colon
[6] = system: OVCAR-4 ovarian
[7] = system: COLO 205 colon
[8] = system: SN12C renal
[9] = system: HCT-116 colon
[10] = system: UO-31 renal
[11] = system: UACC-62 melanoma
[12] = system: K-562 leukemia
[13] = system: HT29 colon
[14] = system: PC-3 prostate
[15] = system: T-47D breast
[16] = system: NCI-H460 lung
[17] = system: NCI-H522 lung
[18] = system: CAKI-1 renal
[19] = system: SF-268 CNS
[20] = system: BT-549 breast
[21] = system: SNB-19 CNS
[22] = system: UACC-257 melanoma
[23] = system: RPMI-8226 leukemia
[24] = system: KM12 colon
[25] = system: SK-MEL-2 melanoma
[26] = system: SK-MEL-28 melanoma
[27] = system: SK-MEL-5 melanoma
[28] = system: A549 NSCLC
[29] = system: SF-295 CNS
[30] = system: IGROV1 ovarian
[31] = system: SK-OV-3 ovarian
[32] = system: TK-10 renal
[33] = system: LOX IMVI melanoma
[34] = system: SW-620 colon
[35] = system: SNB-75 CNS
[36] = system: ACHN renal
[37] = system: OVCAR-5 ovarian
[38] = system: CCRF-CEM leukemia
[39] = system: NCI-H23 lung
[40] = system: MDA-MB-231 breast
[41] = system: HS 578T breast
[42] = system: OVCAR-8 ovarian
[43] = system: EKVX NSCLC
[44] = system: HL-60(TB) leukemia
[45] = system: MOLT-4 leukemia
[46] = system: DU-145 prostate
[47] = system: RXF 393 renal
[48] = system: HOP-62 NSCLC
[49] = system: HCC-2998 colon
[50] = system: OVCAR-3 ovarian
[51] = system: SF-539 CNS
[52] = system: MCF7 breast
[53] = system: A498 renal
[54] = system: M14 melanoma
[55] = system: HOP-92 NSCLC
[56] = system: MALME-3M melanoma
[57] = system: MDA-MB-435

COc1cc(C2c3cc4c(cc3OC(NC3CCCCC3)C2C)OCO4)cc(OC)c1OC (stereo not given)
TGI [1]: 3860 nM
TGI [2]: 23900 nM
TGI [3]: 20100 nM
TGI [4]: 15800 nM
TGI [5]: > 45400 nM
TGI [6]: > 28300 nM
TGI [7]: 825 nM
TGI [8]: > 41900 nM
TGI [9]: 15500 nM
TGI [10]: 32200 nM
TGI [11]: 43200 nM
TGI [12]: > 21500 nM
TGI [13]: 25600 nM
TGI [14]: > 28800 nM
TGI [15]: 66700 nM
TGI [16]: > 100000 nM
TGI [17]: 2280 nM
TGI [18]: 2750 nM
TGI [19]: 28600 nM
TGI [20]: 26400 nM
TGI [21]: > 100000 nM
TGI [22]: > 100000 nM
TGI [23]: 41800 nM
TGI [24]: 7890 nM
TGI [25]: 47800 nM
TGI [26]: > 100000 nM
TGI [27]: 1930 nM
TGI [28]: > 85300 nM
TGI [29]: 577 nM
TGI [30]: > 54000 nM
TGI [31]: 15300 nM
TGI [32]: > 68800 nM
TGI [33]: 17600 nM
TGI [34]: > 55700 nM
TGI [35]: 623 nM
TGI [36]: 40200 nM
TGI [37]: > 100000 nM
TGI [38]: > 100000 nM
TGI [39]: 11000 nM
TGI [40]: 2260 nM
TGI [41]: 58300 nM
TGI [42]: 15600 nM
TGI [43]: > 100000 nM
TGI [44]: 675 nM
TGI [45]: > 39000 nM
TGI [46]: > 100000 nM
TGI [47]: 820 nM
TGI [48]: > 64300 nM
TGI [49]: 4220 nM
TGI [50]: 929 nM
TGI [51]: 1400 nM
TGI [52]: > 100000 nM
TGI [53]: 25000 nM
TGI [54]: 36600 nM
TGI [55]: 22100 nM

COc1ccc(-c2[nH]c3ccccc3c2C=C(C#N)C#N)cc1
GI50 [1]: 335 nM
TGI [1]: 4700 nM
GI50 [2]: 479 nM
TGI [2]: > 100000 nM
GI50 [3]: 715 nM
TGI [3]: > 32100 nM
GI50 [4]: 873 nM
TGI [4]: > 20100 nM
GI50 [5]: 587 nM
TGI [5]: > 100000 nM
GI50 [6]: 797 nM
TGI [6]: > 100000 nM
GI50 [7]: 223 nM
TGI [7]: 533 nM
GI50 [8]: 1150 nM
TGI [8]: > 100000 nM
GI50 [9]: 410 nM
TGI [9]: > 21100 nM
TGI [10]: > 100000 nM
GI50 [11]: 347 nM
GI50 [13]: 371 nM
TGI [13]: > 100000 nM
GI50 [14]: 547 nM
TGI [14]: > 100000 nM
GI50 [15]: 481 nM
TGI [15]: > 100000 nM
GI50 [16]: 368 nM
TGI [16]: > 100000 nM
GI50 [56]: 874 nM
TGI [56]: > 100000 nM
GI50 [17]: 798 nM
TGI [17]: 10300 nM
GI50 [18]: 625 nM
GI50 [19]: 708 nM
TGI [19]: 65600 nM
GI50 [20]: 769 nM
TGI [20]: > 100000 nM
GI50 [21]: 1300 nM
TGI [21]: 36500 nM
GI50 [22]: > 20600 nM
TGI [22]: > 100000 nM
GI50 [24]: 373 nM
TGI [25]: > 100000 nM
GI50 [26]: 1140 nM
TGI [26]: > 39300 nM
GI50 [28]: 694 nM
TGI [28]: > 100000 nM
GI50 [29]: 331 nM
TGI [29]: 6300 nM
TGI [30]: > 100000 nM
GI50 [31]: 434 nM
TGI [31]: 5890 nM
GI50 [32]: 917 nM
TGI [32]: > 71700 nM
GI50 [33]: 1730 nM
TGI [33]: > 100000 nM
GI50 [34]: 435 nM
TGI [34]: > 100000 nM
GI50 [35]: 412 nM
TGI [35]: 20500 nM
GI50 [36]: 2260 nM
TGI [36]: > 100000 nM
GI50 [37]: 2350 nM
TGI [37]: > 100000 nM
GI50 [38]: 352 nM
TGI [38]: 10300 nM
GI50 [39]: 600 nM
TGI [39]: > 42800 nM
GI50 [40]: 543 nM
TGI [40]: > 22600 nM
GI50 [41]: 201 nM
GI50 [42]: 1100 nM
TGI [42]: > 100000 nM
GI50 [43]: 648 nM
TGI [43]: > 100000 nM
GI50 [44]: 271 nM
TGI [44]: 714 nM
GI50 [45]: 578 nM
TGI [45]: 5530 nM
GI50 [57]: 130 nM
TGI [57]: 469 nM
GI50 [46]: 484 nM
TGI [46]: > 21700 nM
GI50 [47]: 511 nM
TGI [47]: > 100000 nM
GI50 [48]: 962 nM
TGI [48]: 21800 nM
GI50 [49]: 670 nM
TGI [49]: 3160 nM
GI50 [50]: 263 nM
TGI [50]: 713 nM
GI50 [51]: 262 nM
TGI [51]: 795 nM
GI50 [52]: 346 nM
TGI [52]: > 100000 nM
GI50 [53]: 294 nM
TGI [53]: 2120 nM
GI50 [54]: 289 nM
GI50 [55]: 1210 nM
TGI [55]: > 100000 nM
